Measured values: patent publication US11807635B2, “Nitrile derivative that acts as inhibitor of dipeptidyl peptidase 1 and use thereof” (HAISCO PHARMACEUTICALS PTE. LTD, priority 2020, dated 2023)

Columns and labels:
[1] = Pharmacokinetic experiment in rats; assay type: in vivo; conditions: rat, male SD rats, plasma; for Vd: read-out: Vdss
Experimental: 1.1 Test animals: Male SD rats, about 220 g, 6-8 weeks old, 6 rats/compound. The rats were purchased from CHENGDU DOSSY EXPERIMENTAL ANIMALS CO., LTD.
1.2 Test design: On the day of the experiment, 6 SD rats were randomly grouped according to their body weight. The rats were fasted but given water for 12-14 h one day before the administration, and were fed 4 h after the administration.
Before and after the administration, 0.1 ml of blood was taken from the orbit of the rats under isoflurane anesthesia and placed in an EDTAK2 centrifuge tube. The blood was centrifuged at 5000 rpm and 4° C. for 10 min to collect plasma. Blood sampling time point for the intravenous administration group: 0, 5, 15, 30 min, 1, 2, 4, 6, 8, and 24 h; and blood sampling time point for the intragastric administration group: 0, 5, 15, 30 min, 1, 2, 4, 6, 8, and 24 h. Before analysis and detection, all samples were stored at −80° C.

[2] = molecular target: Recombinant human DPP1 enzyme (Homo sapiens (Human), UniProt P53634); assay: In vitro DPP1 enzyme activity assay; assay type: biochemical; conditions: recombinant human DPP1 activated with cathepsin L, substrate Gly-Arg-AMC, fluorescence; read-out: DPP1 inhibitory activity IC50
Sequence of Recombinant human DPP1 enzyme (P53634 25-134): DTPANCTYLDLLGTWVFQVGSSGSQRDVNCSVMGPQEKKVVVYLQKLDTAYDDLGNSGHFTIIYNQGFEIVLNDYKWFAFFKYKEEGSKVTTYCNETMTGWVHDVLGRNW
Sequence of Recombinant human DPP1 enzyme (P53634 231-394): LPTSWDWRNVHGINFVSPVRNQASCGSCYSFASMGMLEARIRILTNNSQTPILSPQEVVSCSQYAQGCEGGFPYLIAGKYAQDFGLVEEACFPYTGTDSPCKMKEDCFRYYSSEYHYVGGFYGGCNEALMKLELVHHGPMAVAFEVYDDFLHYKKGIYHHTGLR
Sequence of Recombinant human DPP1 enzyme (P53634 395-463): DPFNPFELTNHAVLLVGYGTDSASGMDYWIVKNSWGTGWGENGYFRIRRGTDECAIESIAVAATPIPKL
Experimental: Recombinant human DPP1 enzyme (R&D Systems, Cat. No. 1071-CY) at a final concentration of 100 μg/mL was mixed with recombinant human cathepsin L (R&D Systems, Cat. No. 952-CY) at a final concentration of 20 μg/mL were mixed and incubated at room temperature for 1 hour to activate the DPP1 enzyme. The activated DPP1 enzyme was diluted 100-fold, and 5 μL of compounds at different concentrations and 5 μL of the diluted DPP1 enzyme were added to a 384-well plate and incubated at room temperature for 30 minutes. […] IC50 values were calculated using the DosResp function of the Origin2019 software.

SMILES | IC50 [2] [nM] | other results
Cn1c(=O)oc2ccc(-c3ccc(C[C@@H](C#N)NC(=O)[C@@H]4CNCCCO4)c(F)c3)cc21 [Compound 1, (S)—N—((S)-1-cyano-2-(2-fluoro-4-(3-methyl-2-oxo-2,3-dihydrobenzo[d]oxazol-5-yl)phenyl)ethyl)-1,4-oxazepane-2-carboxamide] |  | AUC(0-t) ([1]; iv, intravenously 1 mg/kg): 9500 ng·h/mL; clearance ([1]; iv, intravenously 1 mg/kg): 1.66 mL/min/kg; Vd ([1]; iv, intravenously 1 mg/kg): 0.753 L/kg; bioavailability ([1]; po, intragastrically 3 mg/kg): > 100%; AUC(0-t) ([1]; po, intragastrically 3 mg/kg): 31200 ng·h/mL
N#C[C@H](Cc1ccc(-c2ccc3c(c2)CCNC3=O)cc1F)NC(=O)[C@@H]1CNCCCO1 [Compound 10, (S)—N—((S)-1-cyano-2-(2-fluoro-4-(1-oxo-1,2,3,4-tetrahydroisoquinolin-6-yl)phenyl)ethyl)-1,4-oxazepane-2-carboxamide] | 6.7 | 
N#C[C@H](Cc1ccc(C#CC2CCCC2)cc1F)NC(=O)[C@@H]1CNCCCO1 [Compound 11, (S)—N—((S)-1-cyano-2-(4-(cyclopentylethynyl)-2-fluorophenyl)ethyl)-1,4-oxazepane-2-carboxamide] | 239 | 
Cc1nc(-c2ccc(C[C@@H](C#N)NC(=O)[C@@H]3CNCCCO3)c(F)c2)sc1C#N [Compound 12, (S)—N—((S)-1-cyano-2-(4-(5-cyano-4-methylthiazol-2-yl)-2-fluorophenyl)ethyl)-1,4-oxazepane-2-carboxamide] | 21 | 
N#C[C@H](Cc1ccc(-c2nc3ccccc3s2)cc1F)NC(=O)[C@@H]1CNCCCO1 [Compound 13, (S)—N—((S)-2-(4-(benzo[d]thiazol-2-yl)-2-fluorophenyl)-1-cyanoethyl)-1,4-oxazepane-2-carboxamide] | 71 | 
CN1CCN(Cc2ccc(-c3ccc(C[C@@H](C#N)NC(=O)[C@@H]4CNCCCO4)c(F)c3)cc2)CC1 [Compound 14, (S)—N—((S)-1-cyano-2-(3-fluoro-4′-((4-methylpiperazin-1-yl)methyl)-[1,1′-biphenyl]-4-yl)ethyl)-1,4-oxazepane-2-carboxamide] | 12.9 | 
Cc1csc(-c2ccc(C[C@@H](C#N)NC(=O)[C@@H]3CNCCCO3)c(F)c2)n1 [Compound 15, (S)—N—((S)-1-cyano-2-(2-fluoro-4-(4-methylthiazol-2-yl)phenyl)ethyl)-1,4-oxazepane-2-carboxamide] | 33 | 
N#Cc1ccc(-c2ccc(C[C@@H](C#N)NC(=O)[C@@H]3CNCCCO3)c(F)c2)cc1C1CC1 [Compound 17, (S)—N—((S)-1-cyano-2-(4′-cyano-3′-cyclopropyl-3-fluoro-[1,1′-biphenyl]-4-yl)ethyl)-1,4-oxazepane-2-carboxamide] | 7.4 | 
N#Cc1ccc(-c2ccc(C[C@@H](C#N)NC(=O)[C@@H]3CNCCCO3)c(F)c2)cc1C(F)(F)F [Compound 29, (S)—N—((S)-1-cyano-2-(4′-cyano-3-fluoro-3′-(trifluoromethyl)-[1,1′-biphenyl]-4-yl)ethyl)-1,4-oxazepane-2-carboxamide] | 4.9 | 
Cn1c(=O)oc2ccc(-c3cc(F)c(C[C@@H](C#N)NC(=O)[C@@H]4CNCCCO4)cn3)cc21 [Compound 35, (S)—N—((S)-1-cyano-2-(4-fluoro-6-(3-methyl-2-oxo-2,3-dihydrobenzo[d]oxazol-5-yl)pyridin-3-yl)ethyl)-1,4-oxazepane-2-carboxamide] | 4 | 
COC1CNCC(C(=O)N[C@H](C#N)Cc2ccc(-c3ccc(S(F)(F)(F)(F)F)cc3)cc2F)OC1 (stereo partly drawn) [Compound 43, N—((S)-1-cyano-2-(3-fluoro-4′-(pentafluoro-16-sulfanyl)-[1,1′-biphenyl]-4-yl)ethyl)-6-methoxy-1,4-oxazepane-2-carboxamide] | 0.3 | 
Cn1c(=O)oc2ccc(-c3ccc(C[C@@H](C#N)NC(=O)[C@@H]4CNCCCO4)cc3)cc21 [INS1007, reference compound] |  | AUC(0-t) ([1]; iv, intravenously 1 mg/kg): 8400 ng·h/mL; clearance ([1]; iv, intravenously 1 mg/kg): 2.08 mL/min/kg; Vd ([1]; iv, intravenously 1 mg/kg): 0.738 L/kg; bioavailability ([1]; po, intragastrically 3 mg/kg): 88.1%; AUC(0-t) ([1]; po, intragastrically 3 mg/kg): 22200 ng·h/mL
